Test results published in ChEMBL document CHEMBL1201862, “PubChem BioAssay data set” (2004).
Where “and” joins values, the source holds several entries; their conditions need not be identical. Equal entries are not always repeated. Each block holds one molecule with its values, some of them ahead of it. Calls of active or inactive are those of the source.

How the values were obtained:
[1] = tested on: HEK293; assay: PMA/Ionomycin induced NF-kB luciferase assay in 293- NF-kB-Luc stable cells. [Related pubchem assays: 1299, 1270, 1295, 1375, 1287, 1281, 1293, 1291, 1289, 1280, 465, 1364, 1282, 1372, 1365, 1370, 1367, 1366, 1269, 1373, 1292, 1290, 1302, 1371, 1283, 1271, 1294, 1374, 1368, 1369 ]; assay type: functional, cell-based; conditions: Homo sapiens
[2] = tested on: HEK293; assay: TNF Induced NF-kB Luciferase in 293-NF-kB-Luc Stable Cells. [Related pubchem assays: 1266, 1299, 1269, 1373, 1292, 1290, 1302, 1371, 1283, 1270, 1295, 1271, 1375, 1294, 1374, 1281, 1293, 1291, 1289, 1280, 465, 1368, 1364, 1282, 1372, 1365, 1369, 1370, 1367, 1366 ]; assay type: functional, cell-based; conditions: Homo sapiens
[3] = molecular target: T1, Luciferin 4-monooxygenase (Photinus pyralis, UniProt P08659); assay: In vitro luciferase assay using purified luciferase. [Related pubchem assays: 1299, 1270, 1295, 1375, 1287, 1281, 1293, 1291, 1289, 1280, 465, 1364, 1282, 1372, 1365, 1370, 1367, 1366, 1266, 1373, 1292, 1290, 1302, 1371, 1283, 1271, 1294, 1374, 1368, 1369 ]
[4] = tested on: HEK293; assay: Cytotoxicity assay in HEK293 cells. [Related pubchem assays (depositor defined):AID1266, AID1269, AID1270, AID1271, AID1280, AID1281, AID1282, AID1283, AID1287, AID1289, AID1290, AID1291, AID1292, AID1293, AID1294, AID1295, AID1299, AID1302, AID1364, AID1365, AID1366, AID1367, AID1369, AID1370, AID1371, AID1372, AID1373, AID1374, AID1375, AID1384 …; assay type: functional, cell-based; conditions: Homo sapiens
[5] = tested on: HEK293; assay: PMA/Ionomycin-induced IL-8 production in HEK293- NF-kB-Luc stable cells. [Related pubchem assays: 1299, 1295, 1375, 1287, 1281, 1293, 1291, 1289, 1280, 465, 1364, 1282, 1372, 1365, 1367, 1366, 1266, 1269, 1373, 1292, 1290, 1302, 1371, 1283, 1271, 1294, 1374, 1368, 1369 ]; assay type: functional, cell-based; conditions: Homo sapiens
[6] = molecular target: T2, Mu-type opioid receptor (Homo sapiens, UniProt P35372); assay: HTS Image-Based Screen for Agonists of the MOR Receptor. [Related pubchem assays (depositor defined):AID1777, AID1785, AID1786, AID2133]; assay type: functional
[7] = molecular target: T3, Delta-type opioid receptor (Homo sapiens, UniProt P41143); assay: HTS Image-Based Screen for Agonists of the DOR Receptor. [Related pubchem assays (depositor defined):AID1777, AID1786, AID2133]; assay type: functional
[8] = molecular target: T4, Kappa-type opioid receptor (Homo sapiens, UniProt P41145); assay type: functional
[9] = molecular target: T2, Mu-type opioid receptor; assay: mu opioid receptor blockers – image-based, SAR follow-up (AID 2420); assay type: functional;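 note: compounds added before stimulation of receptor with agonist DAMGO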
[10] = molecular target: T4, Kappa-type opioid receptor; assay: SAR analysis of Antagonists of the Kappa Opioid Receptor (KOR) using an Image-Based Assay - Set 4. [Related pubchem assays (depositor defined):AID1777, AID1785]; assay type: functional
[11] = molecular target: T4, Kappa-type opioid receptor; assay: SAR analysis of Antagonists of the Kappa Opioid Receptor (KOR) using an Image-Based Assay - Set 3. [Related pubchem assays (depositor defined):AID1777, AID1785]; assay type: functional
[12] = molecular target: Beta-galactosidase (Escherichia coli, UniProt Q8VNN2); assay type: functional
[13] = molecular target: T4, Kappa-type opioid receptor; assay: kappa opioid receptor activation potency – imaging, image-based, SAR follow-up (AID 2359); assay type: functional
[14] = molecular target: T4, Kappa-type opioid receptor; assay type: functional; remark: listed apart in the source
[15] = molecular target: T4, Kappa-type opioid receptor; assay: kappa opioid receptor blockers, cell-based, luminescence, beta-arrestin, SAR follow-up (AID 2285); assay type: functional
[16] = molecular target: T3, Delta-type opioid receptor; assay: delta opioid receptor blockers – image-based, SAR follow-up (AID 2357); assay type: functional
[17] = molecular target: T2, Mu-type opioid receptor; assay: SAR Analysis of Antagonists of the MOR Receptor using an Image-Based Assay - Set 3. [Related pubchem assays (depositor defined):AID1777, AID1785, AID1786, AID1966, AID2133, AID2136, AID2284, AID2285, AID2420]; assay type: functional
[18] = molecular target: T2, Mu-type opioid receptor; assay: mu opioid receptor activators, image-based, SAR follow-up (AID 2352); assay type: functional
[19] = molecular target: T3, Delta-type opioid receptor; assay: HTS Image-Based Screen for Antagonists of the DOR Receptor. [Related pubchem assays (depositor defined):AID1777, AID1785, AID1786, AID2133]; assay type: functional
[20] = molecular target: T4, Kappa-type opioid receptor; assay: kappa opioid receptor blockers, image-based, SAR follow-up (AID 2348); assay type: functional
[21] = molecular target: T4, Kappa-type opioid receptor; assay: SAR analysis of small molecule antagonists of the kappa opioid receptor via a luminescent beta-arrestin assay - Set 3. [Related pubchem assays (depositor defined):AID1777, AID1778, AID1785, AID1786, AID1966, AID2133, AID2136, AID2285, AID2495]; assay type: functional
[22] = molecular target: T3, Delta-type opioid receptor; assay: SAR Analysis of Antagonists of the DOR Receptor using an Image-Based Assay - Set 3. [Related pubchem assays (depositor defined):AID1777, AID1785]; assay type: functional
[23] = molecular target: T3, Delta-type opioid receptor; assay: DOR agonists, SAR follow-up, image-based (AID 2370); assay type: functional
[24] = Luminescence Cell-Based Dose Confirmation HTS to Identify Inhibitors of Platelet Dense Granule Release. [Related pubchem assays: 1663 (Primary HTS), 1678 (Summary of Project)]; assay type: functional
[25] = molecular target: Polyadenylate-binding protein 1 (Homo sapiens, UniProt P11940); assay: blockers of PABP interaction with poly(A) – biochemical, fluorescence polarization, […] (AID 2014)
[26] = molecular target: Eukaryotic translation initiation factor 4H (Homo sapiens, UniProt Q15056); assay: eIF4H binding inhibition – biochemical, uHTS, fluorescence polarization, translation initiation inhibitor project, primary screen (AID 2012)
[27] = molecular target: T1, Luciferin 4-monooxygenase; assay: inhibition of purified Photinus pyralis luciferase – biochemical, luminescence, dose response (AID 1891)
[28] = molecular target: T5, Scavenger receptor class B member 1 (Mus musculus, UniProt Q61009); assay: mouse SR-BI DiI-HDL uptake blockers – ldlA[mSR-BI] cells, fluorescence, cherry pick, dose response (AID 493194); assay type: functional, cell-based;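 note: cellular uptake of fluorescent DiI-labeled HDL measured as cell fluorescence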
T5 sequence (Q61009 whole entry): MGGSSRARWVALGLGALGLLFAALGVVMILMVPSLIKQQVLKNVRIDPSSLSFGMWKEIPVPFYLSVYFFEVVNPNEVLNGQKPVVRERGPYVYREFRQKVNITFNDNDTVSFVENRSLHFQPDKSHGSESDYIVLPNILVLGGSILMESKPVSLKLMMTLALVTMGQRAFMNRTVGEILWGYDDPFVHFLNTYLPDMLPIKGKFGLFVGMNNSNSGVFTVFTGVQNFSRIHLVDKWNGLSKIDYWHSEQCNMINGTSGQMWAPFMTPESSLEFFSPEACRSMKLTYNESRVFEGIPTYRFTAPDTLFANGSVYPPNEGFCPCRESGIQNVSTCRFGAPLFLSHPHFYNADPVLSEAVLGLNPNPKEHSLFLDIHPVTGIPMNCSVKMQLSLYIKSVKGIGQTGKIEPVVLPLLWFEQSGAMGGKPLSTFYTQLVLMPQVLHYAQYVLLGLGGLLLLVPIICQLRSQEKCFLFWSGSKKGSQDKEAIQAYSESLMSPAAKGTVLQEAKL

[29] = molecular target: Cytochrome P450 2C9 (Homo sapiens, UniProt P11712)
[30] = molecular target: Cytochrome P450 2C19 (Homo sapiens, UniProt P33261); assay: Cytochrome panel assay with activity outcomes. Panel member name: p450-cyp2c19 Compounds with AC50 equal or less than 10 uM are considered active; assay type: functional; conditions: read-out: AC50
[31] = molecular target: T4, Kappa-type opioid receptor; assay type: functional; remark: listed apart in the source
[32] = molecular target: T4, Kappa-type opioid receptor; assay type: functional; remark: listed apart in the source
[33] = molecular target: T6, Voltage-gated N-type calcium channel alpha-1B subunit/Amyloid beta A4 precursor protein-binding family A member 1 (Homo sapiens, UniProt Q00975+Q02410); assay: disruptors of Mint-PDZ/N-type channel peptide interaction – biochemical, HTRF, set 2, SAR follow-up (AID 434980); assay type: functional
[34] = molecular target: T6, Voltage-gated N-type calcium channel alpha-1B subunit/Amyloid beta A4 precursor protein-binding family A member 1; assay: disruptors of Mint-PDZ/N-type channel peptide interaction – biochemical, HTRF, SAR follow-up (AID 2489); assay type: functional
[35] = molecular target: G-protein coupled receptor 55 (Homo sapiens, UniProt Q9Y2T6); assay: selective activators of receptor GPR55 – imaging, U2OS cells, beta-arrestin-GFP redistribution, primary screen (AID 1961); assay type: functional
[36] = molecular target: Metabotropic glutamate receptor 4 (Rattus norvegicus, UniProt P31423); assay: Modulation of the Metabotropic Glutamate Receptor mGluR4: Rat PAM Potency. [Related pubchem assays (depositor defined):AID2437, AID2807]; assay type: functional

T2 sequence (P35372 whole entry): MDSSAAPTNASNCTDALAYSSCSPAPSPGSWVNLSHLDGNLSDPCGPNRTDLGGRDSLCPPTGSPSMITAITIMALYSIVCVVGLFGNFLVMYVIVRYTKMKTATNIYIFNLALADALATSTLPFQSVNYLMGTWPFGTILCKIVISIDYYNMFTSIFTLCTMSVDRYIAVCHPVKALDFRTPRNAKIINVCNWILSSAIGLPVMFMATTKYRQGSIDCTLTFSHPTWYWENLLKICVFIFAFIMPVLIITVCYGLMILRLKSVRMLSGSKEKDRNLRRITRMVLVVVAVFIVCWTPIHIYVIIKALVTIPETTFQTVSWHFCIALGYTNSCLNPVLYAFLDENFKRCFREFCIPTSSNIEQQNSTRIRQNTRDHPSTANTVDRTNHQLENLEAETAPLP
T4 sequence (P41145 whole entry): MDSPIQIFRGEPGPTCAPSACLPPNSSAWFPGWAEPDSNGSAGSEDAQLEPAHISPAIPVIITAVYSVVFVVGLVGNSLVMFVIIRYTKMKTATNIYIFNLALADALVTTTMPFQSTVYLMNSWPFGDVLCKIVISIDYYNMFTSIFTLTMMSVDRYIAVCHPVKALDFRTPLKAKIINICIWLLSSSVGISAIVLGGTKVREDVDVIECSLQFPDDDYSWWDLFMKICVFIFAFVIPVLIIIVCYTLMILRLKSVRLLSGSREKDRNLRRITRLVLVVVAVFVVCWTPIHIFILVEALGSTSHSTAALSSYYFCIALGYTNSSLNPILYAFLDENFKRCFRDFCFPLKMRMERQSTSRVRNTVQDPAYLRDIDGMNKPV
T3 sequence (P41143 whole entry): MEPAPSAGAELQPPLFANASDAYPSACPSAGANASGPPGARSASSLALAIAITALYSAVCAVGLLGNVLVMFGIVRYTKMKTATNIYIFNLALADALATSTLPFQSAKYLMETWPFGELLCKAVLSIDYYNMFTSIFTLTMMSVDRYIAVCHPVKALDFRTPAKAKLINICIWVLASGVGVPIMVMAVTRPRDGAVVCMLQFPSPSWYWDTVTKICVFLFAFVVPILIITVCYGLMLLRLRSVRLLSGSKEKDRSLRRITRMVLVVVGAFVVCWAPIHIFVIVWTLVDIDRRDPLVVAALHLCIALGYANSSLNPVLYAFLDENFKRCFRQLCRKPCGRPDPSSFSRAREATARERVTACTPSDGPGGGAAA
T1 sequence (P08659 whole entry): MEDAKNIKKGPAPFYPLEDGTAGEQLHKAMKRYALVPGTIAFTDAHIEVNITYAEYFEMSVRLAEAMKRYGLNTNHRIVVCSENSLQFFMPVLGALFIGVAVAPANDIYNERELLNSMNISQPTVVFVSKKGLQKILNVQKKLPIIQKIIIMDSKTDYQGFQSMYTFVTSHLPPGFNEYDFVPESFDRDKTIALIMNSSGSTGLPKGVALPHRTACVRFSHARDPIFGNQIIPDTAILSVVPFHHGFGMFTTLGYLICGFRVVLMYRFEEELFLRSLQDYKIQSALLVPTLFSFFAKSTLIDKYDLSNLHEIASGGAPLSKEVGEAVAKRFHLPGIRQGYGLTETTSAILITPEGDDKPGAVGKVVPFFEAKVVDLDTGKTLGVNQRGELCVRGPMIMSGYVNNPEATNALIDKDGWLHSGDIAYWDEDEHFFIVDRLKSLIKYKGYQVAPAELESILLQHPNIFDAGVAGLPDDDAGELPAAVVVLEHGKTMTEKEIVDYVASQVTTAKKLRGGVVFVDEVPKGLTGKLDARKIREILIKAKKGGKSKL
T6 sequence (Q00975 whole entry): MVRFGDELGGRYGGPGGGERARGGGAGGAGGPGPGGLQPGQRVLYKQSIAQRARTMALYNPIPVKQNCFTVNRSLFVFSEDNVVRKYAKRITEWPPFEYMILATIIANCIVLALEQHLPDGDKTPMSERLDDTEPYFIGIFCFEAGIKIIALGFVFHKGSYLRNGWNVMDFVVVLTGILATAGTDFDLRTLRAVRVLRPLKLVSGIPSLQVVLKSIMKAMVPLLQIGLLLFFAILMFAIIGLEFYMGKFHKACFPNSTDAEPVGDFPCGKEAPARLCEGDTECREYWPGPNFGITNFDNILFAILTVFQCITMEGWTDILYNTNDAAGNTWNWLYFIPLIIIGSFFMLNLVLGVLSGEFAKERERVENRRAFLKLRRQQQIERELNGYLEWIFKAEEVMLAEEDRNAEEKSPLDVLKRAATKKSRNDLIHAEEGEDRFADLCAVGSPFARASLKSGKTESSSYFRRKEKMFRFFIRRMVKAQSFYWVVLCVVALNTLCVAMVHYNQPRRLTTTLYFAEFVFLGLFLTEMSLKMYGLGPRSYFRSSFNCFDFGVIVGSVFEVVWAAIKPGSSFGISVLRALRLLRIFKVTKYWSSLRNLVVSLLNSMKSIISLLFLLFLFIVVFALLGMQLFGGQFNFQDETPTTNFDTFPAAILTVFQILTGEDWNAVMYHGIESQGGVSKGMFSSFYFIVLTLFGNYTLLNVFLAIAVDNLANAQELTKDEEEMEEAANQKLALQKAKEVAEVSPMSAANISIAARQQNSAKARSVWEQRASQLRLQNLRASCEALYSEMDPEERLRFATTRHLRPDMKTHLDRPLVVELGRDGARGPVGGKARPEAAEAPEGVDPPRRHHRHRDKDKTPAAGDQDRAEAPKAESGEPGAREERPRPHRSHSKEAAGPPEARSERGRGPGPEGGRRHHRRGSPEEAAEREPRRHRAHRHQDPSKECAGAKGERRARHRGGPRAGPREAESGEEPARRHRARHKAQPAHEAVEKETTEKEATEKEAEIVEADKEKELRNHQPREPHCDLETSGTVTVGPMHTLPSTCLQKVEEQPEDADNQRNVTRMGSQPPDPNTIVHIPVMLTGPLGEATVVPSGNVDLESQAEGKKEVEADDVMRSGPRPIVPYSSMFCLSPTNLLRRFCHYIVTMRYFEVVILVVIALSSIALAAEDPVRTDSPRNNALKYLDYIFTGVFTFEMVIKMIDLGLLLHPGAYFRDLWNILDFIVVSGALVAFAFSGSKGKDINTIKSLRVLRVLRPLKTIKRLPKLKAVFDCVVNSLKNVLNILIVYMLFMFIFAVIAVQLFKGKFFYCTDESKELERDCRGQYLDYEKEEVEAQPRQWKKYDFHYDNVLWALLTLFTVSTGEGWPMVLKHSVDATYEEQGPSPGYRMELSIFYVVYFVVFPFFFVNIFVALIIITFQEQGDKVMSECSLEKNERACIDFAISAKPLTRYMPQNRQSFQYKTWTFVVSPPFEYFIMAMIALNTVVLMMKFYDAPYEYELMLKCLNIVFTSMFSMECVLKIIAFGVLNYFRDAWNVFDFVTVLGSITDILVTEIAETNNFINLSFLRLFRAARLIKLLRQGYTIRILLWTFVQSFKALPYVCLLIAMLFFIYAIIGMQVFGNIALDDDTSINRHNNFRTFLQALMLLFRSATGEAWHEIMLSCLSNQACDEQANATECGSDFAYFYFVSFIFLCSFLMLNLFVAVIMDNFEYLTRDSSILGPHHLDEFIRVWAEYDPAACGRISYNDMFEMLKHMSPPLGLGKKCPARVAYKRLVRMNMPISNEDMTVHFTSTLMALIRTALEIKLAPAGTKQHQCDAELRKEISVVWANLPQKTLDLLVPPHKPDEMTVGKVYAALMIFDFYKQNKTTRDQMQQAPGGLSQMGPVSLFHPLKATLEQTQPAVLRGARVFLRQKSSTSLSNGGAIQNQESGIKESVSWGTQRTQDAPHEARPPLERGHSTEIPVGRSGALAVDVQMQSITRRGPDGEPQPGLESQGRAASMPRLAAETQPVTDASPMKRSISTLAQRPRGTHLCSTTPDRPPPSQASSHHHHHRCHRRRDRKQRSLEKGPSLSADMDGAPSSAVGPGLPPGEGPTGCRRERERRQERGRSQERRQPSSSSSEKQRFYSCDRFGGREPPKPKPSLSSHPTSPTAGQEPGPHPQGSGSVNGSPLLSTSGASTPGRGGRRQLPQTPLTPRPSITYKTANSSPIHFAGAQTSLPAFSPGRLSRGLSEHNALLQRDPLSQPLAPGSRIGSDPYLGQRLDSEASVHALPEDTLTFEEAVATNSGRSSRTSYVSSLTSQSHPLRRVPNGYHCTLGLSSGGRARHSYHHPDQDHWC
T6 sequence (Q02410 whole entry): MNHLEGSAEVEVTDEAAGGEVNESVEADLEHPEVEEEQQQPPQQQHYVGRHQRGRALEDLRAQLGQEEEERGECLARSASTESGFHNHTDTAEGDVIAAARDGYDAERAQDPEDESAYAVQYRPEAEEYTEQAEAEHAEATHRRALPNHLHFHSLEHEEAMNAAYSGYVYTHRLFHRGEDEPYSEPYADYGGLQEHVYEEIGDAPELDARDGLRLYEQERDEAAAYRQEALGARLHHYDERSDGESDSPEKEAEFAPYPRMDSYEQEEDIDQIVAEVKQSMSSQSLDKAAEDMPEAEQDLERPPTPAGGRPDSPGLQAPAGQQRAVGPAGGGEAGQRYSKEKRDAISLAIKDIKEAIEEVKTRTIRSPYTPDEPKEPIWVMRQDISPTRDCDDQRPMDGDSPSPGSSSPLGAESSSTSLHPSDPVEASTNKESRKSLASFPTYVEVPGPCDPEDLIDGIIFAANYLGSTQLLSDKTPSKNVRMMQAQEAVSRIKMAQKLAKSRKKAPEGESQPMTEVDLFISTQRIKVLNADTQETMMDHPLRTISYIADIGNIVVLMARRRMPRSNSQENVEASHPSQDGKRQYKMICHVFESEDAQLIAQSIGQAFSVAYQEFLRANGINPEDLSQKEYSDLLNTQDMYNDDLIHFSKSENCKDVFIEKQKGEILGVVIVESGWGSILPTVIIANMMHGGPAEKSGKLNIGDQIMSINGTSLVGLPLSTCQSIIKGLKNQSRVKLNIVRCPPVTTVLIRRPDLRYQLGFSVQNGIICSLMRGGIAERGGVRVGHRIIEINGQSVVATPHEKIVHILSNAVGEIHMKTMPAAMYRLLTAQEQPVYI

Compound: CCOc1ccc(N(CC(=O)Nc2ccccc2Br)S(C)(=O)=O)cc1
- EC50 [1]: 2.78 µM (active)
- EC50 [2]: > 8 µM (not active)
- EC50 [3]: > 8 µM (not active)
- EC50 [4]: 15.5 µM (inactive)
- EC50 [5]: 8.11 µM (not active)

- EC50 [6]: > 32 µM (inactive)
- EC50 [7]: > 32 µM (inactive)
- IC50 [8]: 1.32 µM
- IC50 [9]: > 32 µM (inactive)
- IC50 [10]: 0.205 µM (active)
- IC50 [11]: 243 nM (active) and 670 nM (active)
- EC50 [12]: > 31.5 µM (inactive)
- EC50 [13]: > 32 µM (inactive)
- IC50 [14]: 2.17 µM (active)
- IC50 [15]: 1.67 µM (active)
- IC50 [16]: > 32 µM (inactive)
- IC50 [17]: > 32 µM (inactive)
- EC50 [18]: > 32 µM (inactive)
- IC50 [19]: > 32 µM (inactive)
- IC50 [20]: 4.14 µM (active)
- IC50 [21]: 1.07 µM (active) and 3.05 µM (active)
- IC50 [22]: > 32 µM (inactive)
- EC50 [23]: > 32 µM (inactive)
Compound: COc1ccc(N2CCN(CCCNC(=O)Cn3c(=O)c4cccn4c4cccnc43)CC2)cc1

Compound: CC(=O)c1cccc(NC(=O)CCc2nnc3ccc(NCc4ccco4)nn23)c1
- EC50 [24]: > 112 µM (not active)
- IC50 [25]: 77 µM (active)
- IC50 [26]: 12 µM (active)
- EC50 [27]: > 112 µM (not active)

- AC50 [28]: 17.3 µM (active)
Compound: CCOc1ccc(CCNC(=O)C2CC(=O)N(c3ccccc3OCC)C2)cc1OCC (centres undefined)

- EC50 [6]: > 32 µM (inactive)
- EC50 [7]: > 32 µM (inactive)
- AC50 [29]: 12.6 µM (inconclusive)
- AC50 [30]: 7.94 µM (inconclusive)
- IC50 [19]: > 32 µM (inactive)
- EC50 [31]: 9.05 µM
- EC50 [32]: 11.4 µM
Compound: CCC(C)(C(=O)NC1CCCC1)N(Cc1ccco1)C(=O)c1ccccn1 (centres undefined)

- IC50 [33]: > 56.8 µM (inactive)
- IC50 [34]: 9.66 µM (active)
Compound: CCCOc1ccc(N2C(=O)C3C(C2=O)C2(C)C=CC3(C)O2)cc1 (centres undefined)

- EC50 [35]: 10.7 µM (inactive)
Compound: CN1CCN(c2nc(Nc3ccccc3)nc(N)c2[N+](=O)[O-])CC1

Compound: COc1cc(NC(=O)c2ccccn2)ccc1NC(=O)c1ccccc1Cl
- EC50 [36]: 0.11 µM (active)
